Experiment [1] concerns NMDA receptor-mediated component of the EPSP. In words: Current clamp EPSP recording in CA1 pyramidal cells. As to conditions: 30 μM TFLLR, 30 nM thrombin. The format is cell-based, rat. The method, then: (§1) Young rats (Sprague-Dawley, age P15-P20) or mice (C57/B16, age P14-19) were deeply anesthetized with isoflurane and decapitated. The brain was rapidly removed and submerged in an ice-cold oxygenated artificial cerebrospinal fluid (ACSF) comprised of 130 mM NaCl, 24 mM NaHCO3, 3.5 mM KCl, 1.25 mM NaH2PO4, 1 mM CaCl2,3 mM MgCl2, and 10 mM glucose saturated with 95% O2/5% CO2, at pH 7.4.
The hemisected brain was glued onto the stage of a vibrating microtome (Leica VT1000 S) and sections of 300 μm thickness were cut and stored in an incubation chamber at room temperature for about 1 h before use. […]
Synaptic responses were evoked by applying 0.1 ms current injection (1-100 μA) to a bipolar stimulating electrode placed in the stratum radiatum. Thrombin (Calbiochem) concentration was determined as described by Gingrich et al. (2000) using conversion of 1 U/ml=10 nM. […]
A series of current clamp experiments were carried out to directly measure the effects of PAR1 activation on the NMDA receptor-mediated component of the EPSP recorded in the presence of 1.5 mM Mg^2+. […]

In experiment [2] the target is T1, NR1/NR2A receptors (Homo sapiens, UniProt Q05586+Q12879).
T1 construct: expressed in transfected cells; host or cells: HEK 293 cells
Description: Glutamate-induced currents in NR1/NR2A transfected HEK 293 cells, perforated patch. In kind it is cell-based. Particulars: 30 nM thrombin 30 s, −60 mV and +60 mV. Here is the method: Whole-cell perforated-patch recording from cultured cortical neurons or HEK cells under voltage clamp (holding potential −60 mV) was made with an Axopatch 200B amplifier (Axon Instruments, Union City, Calif.). The recording chamber was continually perfused with a recording solution comprised of 150 mM NaCl, 3 mM KCl, 2 mM CaCl2, 5.5 mM glucose, and 10 mM HEPES (pH 7.4 by NaOH; osmolality adjusted to 315-320 mOsm with sucrose). Recording electrodes (4-7 MΩ) were filled with (in mM) 150 mM CsMeSO4, 10 mM NaCl, 0.5 CaCl2, 10 mM HEPES, and 25-50 μg/ml gramicidin D (pH adjusted to 7.3 with CsOH and osmolality adjusted to 310 mOsm with sucrose). It took 20-30 min to achieve acceptable perforation with series resistance ranging from 30-60 MΩ. All electrophysiological data from cultured neurons cells in this study were collected at room temperature (23-26° C.).
The external solution included 0.2 mM MgCl2, 2 mM CaCl2, 100 nM ZnCl2, and 50 μM glycine. […] The response from the same cell is shown after a treatment of 30 nM thrombin for 30 s. […] The peak amplitudes of glutamate-induced currents were compared before and after thrombin treatment at −60 mV and +60 mV holding potentials.

In experiment [3] the test system is cultured wild-type mouse astrocytes. In words: Fura-2 intracellular Ca2+ imaging in cultured wild-type astrocytes. In kind it is cell-based. As to conditions: 30 nM thrombin. Here is the method: Cultured astrocytes were prepared from P0-P3 postnatal mice obtained from KIST SPF. The cerebral cortex was dissected free of adherent meninges, minced, and dissociated into single cell suspension by trituration through a Pasteur pipette. All procedures involving the use of animals were reviewed and approved by the Emory University IACUC. Dissociated cells were plated onto either 12 mm glass coverslips or 6 well plates coated with 0.1 mg/ml poly-D-lysine. Cells were grown in a DMEM media (Gibco, cat# 11960-044) supplemented with 25 mM glucose, 10% heat-inactivated horse serum, and 10% heat-inactivated fetal bovine serum, 2 mM glutamine, and 1000 units/ml penicillin-streptomycin. Cultures were maintained at 37° C. in a humidified 5% CO2-containing atmosphere. […] In some experiments, the culture media was replaced 24 hours after plating with DMEM with all added components except glutamine, and cultures were maintained for 4 days before experimentation in glutamine-free media.
Cultured astrocytes were incubated with 5 µM Fura2-AM in […] pluronic acid (Molecular Probes) for 30 min at room temperature, and subsequently transferred to a microscope stage for imaging. The external solution contained 150 mM NaCl, 10 mM HEPES, 3 mM KCl, 2 mM CaCl2, 2 mM MgCl2, and 5.5 mM glucose, and the pH was adjusted to pH 7.3 and osmolarity to 325 mOsm. Intensity images of a 510 nm wavelength were taken at 340 nm and 380 nm excitation wavelengths using either a Micromax Camera (Princeton) or an intensified video camera (PTI), and the two resulting images were used for ratio calculations using Axon Imaging Workbench version 2.2.1.

Experiment [4] deals with CA1 pyramidal cells. In words: Current clamp membrane potential of CA1 pyramidal cells in hippocampal slices. In kind it is cell-based, rat. As to conditions: 30 nM thrombin. Here is the method:
as §1
The hemisected brain was glued onto the stage of a vibrating microtome (Leica VT1000 S) and sections of 300 μm thickness were cut and stored in an incubation chamber at room temperature for about 1 h before use. For voltage clamp experiments, the solution used to fill the electrodes was comprised of 140 mM Cs-MeSO4, 10 mM HEPES, 7 mM NaCl, 4 mM Mg-ATP, and 0.3 mM Na3-GTP; the solution for current clamp recordings was comprised of 140 mM K-MeSO4, 10 mM HEPES, 7 mM NaCl, 4 mM Mg-ATP, and 0.3 mM Na3-GTP, and supplemented with 1 mM QX314; and 1 mM QX314 was omitted from some current clamp recordings (e.g., FIG. 9e).
Slices were placed on the stage of an upright microscope underneath a platinum and nylon restraining grid, and superfused with oxygenated ACSF at room temperature (23° C.), some experiments are performed at 34° C. by a temperature controller (TC-344B, Warner, Hamden). The standard ACSF recording solution was comprised of 130 mM NaCl, 24 mM NaHCO3, 3.5 mM KCl, 1.25 mM NaH2PO4, 1.5 mM CaCl2, 1.5 mM MgCl2, and 10 mM glucose saturated with 95% O2/5% CO2, at pH 7.4. For some experiments 0.5-1 μM TTX, 10 μM NBQX, or 10-20 μM bicuculline were added to the extracellular solution, extracellular Mg^2+ was reduced to 5 μM, and/or extracellular Ca^2+ raised to 2 mM.
Visually guided whole-cell patch recordings were obtained from CA1 pyramidal neurons in a voltage clamp or current clamp configuration using an Axopatch 200A (Axon Instruments) and a borosilicate patch pipette of 5-7 MΩ resistance. […] Records were filtered at 5 kHz and digitized at 20 kHz using a Digidata 1200 A/D board.
Synaptic responses were evoked by applying 0.1 ms current injection (1-100 μA) to a bipolar stimulating electrode placed in the stratum radiatum. Thrombin (Calbiochem) concentration was determined as described by Gingrich et al. (2000) using conversion of 1 U/ml=10 nM. TFLLR and thrombin were applied by gravity perfusion at 1.0 ml/min, with extensive washing of perfusion lines, chamber, and objective between experiments to remove all residual thrombin, which has been reported to irreversibly cleave and PAR1 at a pM concentration. Removal of all thrombin ensured that PAR1 receptors were not pre-cleaved by residual thrombin prior to experimentation.

T1 sequence (Q12879 23-1464, other chains not shown): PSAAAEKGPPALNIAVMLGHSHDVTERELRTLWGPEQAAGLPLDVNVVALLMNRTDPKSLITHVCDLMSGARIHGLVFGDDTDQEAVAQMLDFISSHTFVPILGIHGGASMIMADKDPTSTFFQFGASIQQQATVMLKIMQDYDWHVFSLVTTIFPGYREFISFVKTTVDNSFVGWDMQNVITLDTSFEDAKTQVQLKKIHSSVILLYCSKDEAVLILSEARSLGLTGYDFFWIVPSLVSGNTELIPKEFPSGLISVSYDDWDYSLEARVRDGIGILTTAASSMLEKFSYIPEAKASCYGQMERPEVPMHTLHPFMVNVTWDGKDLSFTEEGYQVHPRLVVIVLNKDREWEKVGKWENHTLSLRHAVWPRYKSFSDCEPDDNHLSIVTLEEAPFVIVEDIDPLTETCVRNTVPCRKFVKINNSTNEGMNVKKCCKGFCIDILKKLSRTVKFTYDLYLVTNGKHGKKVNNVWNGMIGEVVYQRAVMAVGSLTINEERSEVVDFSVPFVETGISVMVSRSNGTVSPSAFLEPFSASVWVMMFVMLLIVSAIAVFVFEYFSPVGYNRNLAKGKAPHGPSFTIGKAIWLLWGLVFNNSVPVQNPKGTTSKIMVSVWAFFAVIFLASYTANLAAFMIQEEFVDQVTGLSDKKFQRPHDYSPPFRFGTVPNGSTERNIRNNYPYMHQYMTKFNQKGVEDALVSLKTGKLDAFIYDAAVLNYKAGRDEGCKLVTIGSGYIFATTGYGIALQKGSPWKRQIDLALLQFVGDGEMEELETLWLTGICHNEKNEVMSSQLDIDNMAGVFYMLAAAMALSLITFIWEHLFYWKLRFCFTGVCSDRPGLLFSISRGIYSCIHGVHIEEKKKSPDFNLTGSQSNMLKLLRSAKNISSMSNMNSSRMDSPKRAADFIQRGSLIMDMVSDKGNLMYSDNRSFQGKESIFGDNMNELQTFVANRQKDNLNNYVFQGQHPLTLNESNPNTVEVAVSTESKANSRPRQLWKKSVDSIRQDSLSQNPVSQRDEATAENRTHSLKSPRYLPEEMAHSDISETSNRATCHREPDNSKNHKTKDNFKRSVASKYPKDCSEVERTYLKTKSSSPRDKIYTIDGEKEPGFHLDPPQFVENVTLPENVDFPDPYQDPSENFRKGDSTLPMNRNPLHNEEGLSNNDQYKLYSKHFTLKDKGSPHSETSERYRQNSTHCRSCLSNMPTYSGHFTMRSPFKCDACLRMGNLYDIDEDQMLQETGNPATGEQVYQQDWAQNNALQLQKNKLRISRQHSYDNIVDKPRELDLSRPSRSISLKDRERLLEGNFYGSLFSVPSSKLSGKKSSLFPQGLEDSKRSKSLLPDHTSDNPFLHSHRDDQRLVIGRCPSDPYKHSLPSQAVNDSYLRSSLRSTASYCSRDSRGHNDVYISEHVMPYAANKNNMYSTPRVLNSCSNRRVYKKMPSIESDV

Turning to thrombin, in experiment [1], the “potentiation of synaptic NMDA component of EPSPs at 34° C.” value is given as 120±6%. Moreover, the “glutamate-induced current profile before and after thrombin” value in experiment [2] is “no change”. In addition, the “change in Fura-2 ratio” value in experiment [3] (without or after pretreatment with 1 μM BMS200261) turned out to be 150.9±17.4%. In experiment [3] (30 μM TFLLR, 10 μM bradykinin, 50 μM 2-methyl-thio-ATP, 10 μM ATP), the “level of astrocytic intracellular Ca^2+ (Fura-2 fluorescence ratio)” value was “robust increase”. Moreover, the membrane depolarization in experiment [4] (1.5 mM Mg^2+, n=22) is 5.7±0.9 mV. For the same substance, in experiment [4] (with or without APV 100 μM), the “depolarization of the membrane potential at 23° C.” value is listed as 5.8±1.7 mV and the “depolarization of the membrane potential at 34° C.” value was found to be 4.3±1.0 mV.

These data come from patent US20080299109A1, “MECHANISM OF ASTRICYTE-NEURON SIGNALING” (Korea Institute of Science and Technology, priority 2007, published 2008).
